Assays:
[1] = system: Lewis Lung Carcinoma (LLC) cells; experiment: Lewis Lung Carcinoma (LLC) proliferation in vitro, Alamar Blue fluorescence; assay type: cell-based; conditions: combination with a chemodrug (doxorubican, 5-FU, cisplatin or paclitaxel), 48 hours after treatment, relative to JNK inhibitor or chemodrug alone
Experimental: This experiment was performed in vitro to determine the effect on Lewis Lung Carcinoma (LLC) proliferation of combination treatment with JNK inhibitor A and JNK inhibitor B (JNK inhibitor A=((2H-Dibenzo(cd,g)indazol-6-one)); JNK inhibitor B=(3-(4-fluoro-phenyl)-5-(2H-(1,2,4-triazol-3-yl)-1H-indazole)) and anti-cancer agents. The results are illustrated in FIGS. 1A and 1B.
LLC cells were grown in DMEM with 10% FBS. Cells were subsequently treated on the second day with either DMSO,JNK inhibitor A (3 μM, 10 μM or 30 μM), JNK inhibitor B (1 μM, 3 μM, or 10 μM), or a chemodrug (i.e., doxorubican, […] (5-FU), cisplatin or paclitaxel) (concentrations ranging from 0.001 μM to 10 μM) or a combination of JNK inhibitor A or JNK inhibitor B with a chemodrug. Cell proliferation was measured at 48 hours after treatment by Alamar Blue fluorescence.

MiaPaCa cells = experiment: MiaPaCa cell apoptosis, DiOC6 staining and flow cytometry; assay type: cell-based; conditions: taxol for first 7 hours, washed out, then JNK inhibitor A; read at 48 hours; compared to taxol alone
Experimental: The following experiment was performed to determine the effectiveness of combination treatment with JNK inhibitor A and a chemodrug on apoptosis. The results are illustrated in FIG. 3.
MiaPaCa cells (100,000/well) were plated in 6 well plates. Following overnight incubation, vehicle or taxol was added alone for the first 7 hours, washed out, and then JNK inhibitor A or vehicle were added for the remainder of the experiment. After 48 hours, each sample was trypsinized, stained with DiOC6 and analyzed by flow cytometry on a Coulter Epics flow cytometer using FlowJo software.

Lewis lung carcinoma = experiment: LLC tumor growth in mice, JNK inhibitor A with cyclophosphamide; assay type: in vivo, C57BL/6 mice; conditions: JNK inhibitor A in combination with cyclophosphamide; p=0.05; N=10
Experimental: The following experiment was performed to determine the effectiveness of combination treatment with JNK inhibitor A and cyclophosphamide. The results are illustrated in FIG. 4.
Tumor cells were cultured under normal conditions, harvested with trypsin, washed with PBS then resuspended, 1×10^7 cells/ml in Matrigel (Collaborative). C57BL/6 mice (female, 18-20 g, Charles River) were lightly anesthetized using Isofluorane then inoculated, subcutaneously, under the right flank with 0.1 ml Matrigel containing 1×10^6 tumor cells. Mice were randomized into treatment groups immediately after cell inoculation. After 3 days tumor growth treatment began. Mice were administered vehicle alone (DMSO), cyclophosphamide (CTX), JNK inhibitor A or CTX in combination with JNK inhibitor A. Tumor volumes were determined by caliper measurement. Tumor volume was calculated by the formula: mm^3=(L×W2)/2. Values are mean±sem, N=10.

[2] = system: Lewis Lung Carcinoma (LLC) tumors; experiment: LLC tumor growth in mice, JNK inhibitor B with cyclophosphamide; assay type: in vivo, C57BL/6 mice; conditions: CTX (50 mg/kg, ip, q3d) in combination with JNK inhibitor B; 17 days; 10/group
Experimental: This experiment was performed to determine if JNK inhibitors will enhance the antitumor effects of cyclophosphamide (CTX) in combination treatment. Results are illustrated in FIG. 2.
Lewis Lung Carcinoma (LLC) tumors were injected into C57BL/6 mice (50 mice, 10/group), 1×10^6 cells in 0.1 ml Matrigel. Tumors were treated the day after inoculation by administration of vehicle alone (0.5% CMC/0.25% Tween 80), cyclophosphamide (CTX, 50 mg/kg, ip, q3d), SPC2 (75 mg/kg, ip, b.i.d.) or CTX in combination with JNK inhibitor B. Tumor volume was recorded over a period of 17 days. Tumor volume was calculated by the formula: mm^3=(L×W^2)/2. In the CTX/JNK inhibitor B combination group, 7/10 animals had no measurable tumors at the end of the study.

[3] = system: HCT-116 human colorectal cancer cells; experiment: HCT-116 tumor growth in SCID mice, JNK inhibitor C with Camptosar; assay type: in vivo, CB17 SCID mice; conditions: JNK inhibitor C (15 mg/kg, i.p., b.i.d) + Camptosar (1.5 mg/kg, q4d)
Experimental: The following experiment was performed to determine the effectiveness of combination treatment with JNK inhibitor C (JNK inhibitor C=(3-(4-(2-Piperidin-1-yl-ethoxy)-cyclohexa-1,5-dienyl)-5-(2H-(1,2,4)triazol-3-yl)-1H-indazole)) and Camptosar. The results are illustrated in FIG. 5.
CB17 SCID mice were inoculated subcutaneously with HCT-116 human colorectal cancer cells. On day 8, mice bearing tumors of 100 mm^3 were segregated into groups and administered i.p. with vehicle (citrate buffer), JNK inhibitor C (15 mg/kg), JNK inhibitor C (30 mg/kg), JNK inhibitor C (15 mg/kg)+Camptosar (1.5 mg/kg), Camptosar (1.5 mg/kg) or Camptosar (10 mg/kg). The tumors were measured twice a week and volumes calculated. The dosing regimen for the compound JNK inhibitor C was b.i.d and for Camptosar was q4d. The arrows indicate the dosing days of JNK inhibitor C and Camptosar.

Row | SMILES | killing of cells (cell proliferation) [1] | chemotherapeutic induction of apoptosis (MiaPaCa cells) | tumor inhibition (tumor volume) versus cyclophosphamide alone (Lewis lung carcinoma) | animals with no measurable tumors at the end of the study [2] | tumor growth versus either treatment alone [3]
1 | O=C1c2ccccc2-c2n[nH]c3cccc1c23 [JNK inhibitor A, 2H-Dibenzo(cd,g) indazol-6-one] | increased killing of cells | Potentiates Chemotherapeutic Induction of Apoptosis | significantly less |  | 
2 | Fc1ccc(-c2n[nH]c3ccc(-c4ncn[nH]4)cc23)cc1 [JNK inhibitor B, 3-(4-fluoro-phenyl)-5-(2H-(1,2,4)triazol-3-yl)-1H-indazole] | increased killing of cells |  |  | 7/10 | 
3 | C1=CC(OCCN2CCCCC2)CC=C1c1n[nH]c2ccc(-c3ncn[nH]3)cc12 (stereo not drawn) [JNK inhibitor C, 3-(4-(2-Piperidin-1-yl-ethoxy)-cyclohexa-1,5-dienyl)-5-(2H-(1,2,4)triazol-3-yl)-1H-indazole] |  |  |  |  | significantly slower
